The values below come from US5914319A, “Antithrombotic agents” (Eli Lilly and Company, priority 1995, dated 1999).

Format in all cases: biochemical
The subject of assay [1] is Human plasma. The experiment in a line: Human plasma anticoagulation, thrombin time (TT). Conditions: concentration required to double the thrombin time, linear extrapolation. The method, then:
(§1) Dog plasma and rat plasma is obtained from conscious mixed-breed hounds (either sex, Hazelton-LRE, Kalamazoo, Mich., U.S.A.) or from anesthetized male Sprague-Dawley rats (Harlan Sprague-Dawley, Inc., Indianapolis, Ind., U.S.A.) by venipuncture into 3.8 percent citrate. Fibrinogen is prepared from in-date ACD human blood as the fraction I-2 according to previous procedures and specifications. […] Human fibrinogen is also purchased as 98 percent pure/plasmin free from American Diagnostica, Greenwich, Conn. Coagulation reagents ACTIN, Thromboplastin, and Human plasma are from Baxter Healthcare Corp., Dade Division, Miami, Fla. Bovine thrombin from Parke-Davis ([…], Mich.) is used for coagulation assays in plasma.
(§2) Coagulation assay procedures are as previously described. […] A CoAScreener coagulation instrument (American LABor, Inc.) is used for all coagulation assay measurements. The prothrombin time (PT) is measured by adding 0.05 mL saline and 0.05 mL Thromboplastin-C reagent to 0.05 mL test plasma. The activated partial thromboplastin time (APTT) is measured by incubation of 0.05 mL test plasma with 0.05 mL Actin reagent for 120 seconds followed by 0.05 mL CaCl2 (0.02M). The thrombin time (TT) is measured by adding 0.05 mL saline and 0.05 mL thrombin (10 NIH units/mL) to 0.05 mL test plasma. The compounds of Formula I are added to human or animal plasma over a wide range of concentrations to determine prolongation effects on the APTT, PT, and TT assays. Linear extrapolations are performed to estimate the concentrations required to double the clotting time for each assay.

Assay [2] relates to Human plasma. The experiment in a line: Human plasma anticoagulation, activated partial thromboplastin time (APTT). Conditions: concentration required to double the APTT, linear extrapolation. As for the experimental part: as §1, §2
Assay [3] concerns Human plasma. Put plainly: Human plasma anticoagulation, prothrombin time (PT). The conditions noted are these: concentration required to double the PT, linear extrapolation. The method, then:
as §1, §2

SMILES strings stand for the structures. Counter-ions that a name gives are not always drawn.

In the case of `CCS(=O)(=O)N[C@H](Cc1ccccc1)C(=O)N1CCC[C@H]1C(=O)NCCCc1ccc(C(=N)N)cc1` [Example 30, EtSO2 -D-Phe-Pro-p-NHCH2 CH2 CH2 --C6 H4 C(=NH)NH2.HCl], the “Human Plasma Anticoagulation 2× Clotting time (ng/mL) TT” value in assay [1] is on record as 1,000 ng/mL. Moreover, the “Human Plasma Anticoagulation 2× Clotting time (ng/mL) APTT” value in assay [2] was 14,000 ng/mL. For the same compound, the “Human Plasma Anticoagulation 2× Clotting time (ng/mL) PT” value in assay [3] is 14,400 ng/mL.

In the case of `CCS(=O)(=O)N[C@H](Cc1ccccc1)C(=O)N1CCC[C@H]1C(=O)NCCCc1cccc(C(=N)N)c1` [Example 31, EtSO2 -D-Phe-Pro-m-NHCH2 CH2 CH2 --C6 H4 C(=NH)NH2.HCl], the “Human Plasma Anticoagulation 2× Clotting time (ng/mL) TT” value in assay [1] was 10,800 ng/mL. Further, the “Human Plasma Anticoagulation 2× Clotting time (ng/mL) APTT” value in assay [2] is on record as 34,500 ng/mL. Also, the “Human Plasma Anticoagulation 2× Clotting time (ng/mL) PT” value in assay [3] is recorded as 30,000 ng/mL.

As for `Cl.N=C(N)c1ccc(CCCNC(=O)C2CCCN2C(=O)C2NCCC3CCCCC32)cc1` (stereo not drawn) [Example 32, 1-Piq-Pro-p-NHCH2 CH2 CH2 --C6 H4 C(=NH)NH2.HCl], the “Human Plasma Anticoagulation 2× Clotting time (ng/mL) TT” value in assay [1] is reported as 3,100 ng/mL. Further, the “Human Plasma Anticoagulation 2× Clotting time (ng/mL) APTT” value in assay [2] was 28,500 ng/mL. Further, in assay [3], the “Human Plasma Anticoagulation 2× Clotting time (ng/mL) PT” value was 47,800 ng/mL.

Turning to `N=C(N)c1cccc(CCCNC(=O)[C@@H]2CCCN2C(=O)[C@@H]2NCC[C@@H]3CCCC[C@@H]32)c1` [Example 33, 1-Piq-Pro-m-NHCH2 CH2 CH2 --C6 H4 C(=NH)NH2.HCl], in assay [1], the “Human Plasma Anticoagulation 2× Clotting time (ng/mL) TT” value is listed as 18,900 ng/mL. Also, the “Human Plasma Anticoagulation 2× Clotting time (ng/mL) APTT” value in assay [2] is recorded as 59,300 ng/mL. Also, the “Human Plasma Anticoagulation 2× Clotting time (ng/mL) PT” value in assay [3] is recorded as 70,900 ng/mL.

As to `CCS(=O)(=O)N[C@H](Cc1ccccc1)C(=O)N1CCC[C@H]1C(=O)NCc1ccc(NC(=N)N)cc1` [Example 34, EtSO2 -D-Phe-Pro-p-NHCH2 C6 H4 NHC(NH)NH2.HCl], the “Human Plasma Anticoagulation 2× Clotting time (ng/mL) TT” value in assay [1] was 530 ng/mL. Also, the “Human Plasma Anticoagulation 2× Clotting time (ng/mL) APTT” value in assay [2] is given as 4,900 ng/mL. The “Human Plasma Anticoagulation 2× Clotting time (ng/mL) PT” value in assay [3] was 5,500 ng/mL.

For `CCS(=O)(=O)N[C@H](Cc1ccccc1)C(=O)N1CCC[C@H]1C(=O)NCc1cccc(NC(=N)N)c1` [Example 36, EtSO2 -D-Phe-Pro-m-NHCH2 C6 H4 NHC(NH)NH2.HCl], the “Human Plasma Anticoagulation 2× Clotting time (ng/mL) TT” value in assay [1] is given as 7,700 ng/mL. Also, in assay [2], the “Human Plasma Anticoagulation 2× Clotting time (ng/mL) APTT” value is > 91,000 ng/mL. Moreover, the “Human Plasma Anticoagulation 2× Clotting time (ng/mL) PT” value in assay [3] is recorded as > 91,000 ng/mL.

Take `CCS(=O)(=O)N[C@H](Cc1ccccc1)C(=O)N1CCC[C@H]1C(=O)NCCc1cccc(N=C(N)N)c1.Cl` [Example 37, EtSO2 -D-Phe-Pro-m-NHCH2 CH2 C6 H4 NHC(NH)NH2.HCl]: in assay [1], the “Human Plasma Anticoagulation 2× Clotting time (ng/mL) TT” value is reported as > 9,000 ng/mL. Also, the “Human Plasma Anticoagulation 2× Clotting time (ng/mL) APTT” value in assay [2] is > 9,000 ng/mL. Also, the “Human Plasma Anticoagulation 2× Clotting time (ng/mL) PT” value in assay [3] is reported as > 9,000 ng/mL.

As to `N=C(N)Nc1ccc(CNC(=O)[C@@H]2CCCN2C(=O)[C@@H]2NCC[C@@H]3CCCC[C@@H]32)cc1` [Example 38, D-1-Piq-Pro-p-NHCH2 C6 H4 NHC(NH)NH2.2HCl], the “Human Plasma Anticoagulation 2× Clotting time (ng/mL) TT” value in assay [1] was 540 ng/mL. In assay [2], the “Human Plasma Anticoagulation 2× Clotting time (ng/mL) APTT” value is reported as 6,100 ng/mL. The “Human Plasma Anticoagulation 2× Clotting time (ng/mL) PT” value in assay [3] is reported as 11,100 ng/mL.

Regarding `N=C(N)Nc1ccc(CCNC(=O)[C@@H]2CCCN2C(=O)[C@@H]2NCC[C@@H]3CCCC[C@@H]32)cc1` [Example 39, D-1-Piq-Pro-p-NHCH2 CH2 C6 H4 NHC(NH)NH2.2HCl], the “Human Plasma Anticoagulation 2× Clotting time (ng/mL) TT” value in assay [1] is reported as 5,300 ng/mL. Also, the “Human Plasma Anticoagulation 2× Clotting time (ng/mL) APTT” value in assay [2] is recorded as 69,200 ng/mL. Further, the “Human Plasma Anticoagulation 2× Clotting time (ng/mL) PT” value in assay [3] was 78,600 ng/mL.

Take `N=C(N)Nc1cccc(CNC(=O)[C@@H]2CCCN2C(=O)[C@@H]2NCC[C@@H]3CCCC[C@@H]32)c1` [Example 40, D-1-Piq-Pro-m-NHCH2 C6 H4 NHC(NH)NH2.2HCl]: in assay [1], the “Human Plasma Anticoagulation 2× Clotting time (ng/mL) TT” value was 35,100 ng/mL. In assay [2], the “Human Plasma Anticoagulation 2× Clotting time (ng/mL) APTT” value was > 91,000 ng/mL. Also, the “Human Plasma Anticoagulation 2× Clotting time (ng/mL) PT” value in assay [3] is listed as > 91,000 ng/mL.

As for `N=C(N)Nc1cccc(CCNC(=O)[C@@H]2CCCN2C(=O)[C@@H]2NCC[C@@H]3CCCC[C@@H]32)c1` [Example 41, D-1-Piq-Pro-m-NHCH2 CH2 C6 H4 NHC(NH)NH2.2HCl], the “Human Plasma Anticoagulation 2× Clotting time (ng/mL) TT” value in assay [1] is on record as 82,200 ng/mL. Also, the “Human Plasma Anticoagulation 2× Clotting time (ng/mL) APTT” value in assay [2] was > 91,000 ng/mL. Moreover, in assay [3], the “Human Plasma Anticoagulation 2× Clotting time (ng/mL) PT” value is recorded as > 91,000 ng/mL.

Regarding `Cl.N=C(N)c1ccc(CNC(=O)C2CC3CCCCC3N2C(=O)C(CC2CCCCC2)NCC(=O)O)cc1` [Example 49, HOOCCH2 -D-Cha-cis-Ohi-p-NHCH2 C6 H4 C(NH)NH2.HCl], the “Human Plasma Anticoagulation 2× Clotting time (ng/mL) TT” value in assay [1] was 5 ng/mL. For the same compound, the “Human Plasma Anticoagulation 2× Clotting time (ng/mL) APTT” value in assay [2] was 130 ng/mL. In assay [3], the “Human Plasma Anticoagulation 2× Clotting time (ng/mL) PT” value is reported as 130 ng/mL.

Regarding `Cl.Cl.N=C(N)c1ccc(CNC(=O)[C@@H]2CCCN2C(=O)[C@H](N)CC2CCCCC2)cc1` [Example 51, D-Cha-Pro-p-NHCH2 C6 H4 C(NH)NH2.2HCl], in assay [1], the “Human Plasma Anticoagulation 2× Clotting time (ng/mL) TT” value is reported as 2 ng/mL. Besides, in assay [2], the “Human Plasma Anticoagulation 2× Clotting time (ng/mL) APTT” value was 48 ng/mL. Further, the “Human Plasma Anticoagulation 2× Clotting time (ng/mL) PT” value in assay [3] is listed as 110 ng/mL.

Turning to `Cl.N=C(N)c1ccc(CNC(=O)[C@@H]2CCCN2C(=O)[C@@H](CC2CCCCC2)NCCC(=O)O)cc1` [Example 52, HOOCCH2 CH2 -D-Cha-Pro-p-NHCH2 C6 H4 C(NH)NH2.HCl], in assay [1], the “Human Plasma Anticoagulation 2× Clotting time (ng/mL) TT” value is on record as 6 ng/mL. Moreover, the “Human Plasma Anticoagulation 2× Clotting time (ng/mL) APTT” value in assay [2] is 80 ng/mL. In addition, the “Human Plasma Anticoagulation 2× Clotting time (ng/mL) PT” value in assay [3] was 170 ng/mL.

For the compound `O=C(O)CN[C@H](CC1CCCCC1)C(=O)N1CCC[C@H]1C(=O)NCC1CCNCC1` [Example 53, HO2 CCH2 -D-Cha-Pro-4-NHCH2 -piperidine.HCl], the “Human Plasma Anticoagulation 2× Clotting time (ng/mL) TT” value in assay [1] is given as 1,400 ng/mL. In assay [2], the “Human Plasma Anticoagulation 2× Clotting time (ng/mL) APTT” value was 33,800 ng/mL. Besides, the “Human Plasma Anticoagulation 2× Clotting time (ng/mL) PT” value in assay [3] is recorded as 34,500 ng/mL.

On to `Cl.O=C(O)CNC(CC1CCCCC1)C(=O)N1CCCC1C(=O)NCCC1CCNCC1` [Example 54, HO2 CCH2 -D-Cha-Pro-4-NHCH2 CH2 -piperidine.HCl], for which, in assay [1], the “Human Plasma Anticoagulation 2× Clotting time (ng/mL) TT” value was 140 ng/mL. Also, the “Human Plasma Anticoagulation 2× Clotting time (ng/mL) APTT” value in assay [2] was 3,300 ng/mL. Further, the “Human Plasma Anticoagulation 2× Clotting time (ng/mL) PT” value in assay [3] was 2,200 ng/mL.

As for `O=C(O)CN[C@H](CC1CCCCC1)C(=O)N1CCC[C@H]1C(=O)NCCCC1CCNCC1` [Example 55, HO2 CCH2 -D-Cha-Pro-4-NHCH2 CH2 CH2 -piperidine.HCl], in assay [1], the “Human Plasma Anticoagulation 2× Clotting time (ng/mL) TT” value is given as 55,800 ng/mL. Also, the “Human Plasma Anticoagulation 2× Clotting time (ng/mL) APTT” value in assay [2] is > 91,000 ng/mL. In assay [3], the “Human Plasma Anticoagulation 2× Clotting time (ng/mL) PT” value is > 91,000 ng/mL.

`Cl.N=C(N)N1CCC(CNC(=O)[C@@H]2CCCN2C(=O)[C@@H](CC2CCCCC2)NCC(=O)O)CC1` [Example 56, HO2 CCH2 -D-Cha-Pro-4-NHCH2 -1-amidinopiperidine.HCl]: the “Human Plasma Anticoagulation 2× Clotting time (ng/mL) TT” value in assay [1] is reported as 5 ng/mL. For the same compound, in assay [2], the “Human Plasma Anticoagulation 2× Clotting time (ng/mL) APTT” value is 160 ng/mL. The “Human Plasma Anticoagulation 2× Clotting time (ng/mL) PT” value in assay [3] is 200 ng/mL.
